The values that follow come from patent US8097722B2 (priority 2008, dated 2012).

In one assay the test system is brain PMPMEase. The format is biochemical, porcine.
In a further assay the test system is liver PMPMEase. The assay is classed as biochemical, porcine.
Further: test concentration or dose not given here.

For `COP(=S)(OC)Oc1ccc(SC)c(C)c1` [Fenthion], the “Brain Mean (mean percent inhibition relative to the controls)” value in the assay with brain PMPMEase is 17%. In the assay on liver PMPMEase, the “Liver Mean (mean percent inhibition relative to the controls)” value was determined as 40%.

Regarding `CCOP(=S)(OCC)SCCSCC` [Disulfoton], the “Brain Mean (mean percent inhibition relative to the controls)” value with brain PMPMEase is recorded as “NO INHIBITION”. For the same molecule, the “Liver Mean (mean percent inhibition relative to the controls)” value in the assay with liver PMPMEase turned out to be 38%.

As to `CCOP(=S)(OCC)SCSP(=S)(OCC)OCC` [Ethion], the “Brain Mean (mean percent inhibition relative to the controls)” value in the assay with brain PMPMEase was “NO INHIBITION”. Also, the “Liver Mean (mean percent inhibition relative to the controls)” value in the assay on liver PMPMEase stood at 92%.

For the molecule `COP(=S)(OC)Oc1ccc(S(=O)(=O)N(C)C)cc1` [Famphur], the “Brain Mean (mean percent inhibition relative to the controls)” value in the assay with brain PMPMEase is 60%. Also, in the assay on liver PMPMEase, the “Liver Mean (mean percent inhibition relative to the controls)” value is 71%.

As to Dicrotophos, the “Liver Mean (mean percent inhibition relative to the controls)” value in the assay with liver PMPMEase is given as 56%.

For `COP(=S)(OC)Oc1ccc([N+](=O)[O-])c(C)c1` [Fenitrothion], in the assay with brain PMPMEase, the “Brain Mean (mean percent inhibition relative to the controls)” value amounted to 75%. In addition, the “Liver Mean (mean percent inhibition relative to the controls)” value in the assay on liver PMPMEase came to 98%.

On to `CCOP(=S)(OCC)OP(=S)(OCC)OCC` [Sulfotep], for which, in the assay with brain PMPMEase, the “Brain Mean (mean percent inhibition relative to the controls)” value is on record as 47%. Also, the “Liver Mean (mean percent inhibition relative to the controls)” value with liver PMPMEase worked out at 97%.

Regarding `CCOP(=O)(N=C1SCC(C)S1)OCC` (centres unmarked) [Mephosfolan], the “Liver Mean (mean percent inhibition relative to the controls)” value with liver PMPMEase is listed as 100%.

With `CCOP(=S)(OCC)Oc1ccc2c(C)c(Cl)c(=O)oc2c1` [Coumaphos], the “Brain Mean (mean percent inhibition relative to the controls)” value in the assay on brain PMPMEase is 62%. Also, the “Liver Mean (mean percent inhibition relative to the controls)” value in the assay with liver PMPMEase is reported as 46%.

In the case of `CCCSP(=O)(OCC)Oc1ccc(Br)cc1Cl` (centres unmarked) [Profenofos], the “Brain Mean (mean percent inhibition relative to the controls)” value in the assay on brain PMPMEase is reported as 81%. For the same molecule, the “Liver Mean (mean percent inhibition relative to the controls)” value in the assay on liver PMPMEase stood at 97%.

On to `CCOC(=O)CC(SP(=S)(OC)OC)C(=O)OCC` (centres unmarked) [Malathion], for which, in the assay on brain PMPMEase, the “Brain Mean (mean percent inhibition relative to the controls)” value was 51%. Moreover, the “Liver Mean (mean percent inhibition relative to the controls)” value with liver PMPMEase was 53%.

Regarding `CCOP(=S)(OCC)SCCl` [Chlormefos], the “Brain Mean (mean percent inhibition relative to the controls)” value in the assay with brain PMPMEase turned out to be 65%. In addition, in the assay on liver PMPMEase, the “Liver Mean (mean percent inhibition relative to the controls)” value stood at 86%.

In the case of `COP(=S)(OC)Oc1ccc(Sc2ccc(OP(=S)(OC)OC)cc2)cc1` [Abate], the “Brain Mean (mean percent inhibition relative to the controls)” value in the assay on brain PMPMEase stood at 59%. The “Liver Mean (mean percent inhibition relative to the controls)” value in the assay with liver PMPMEase is 80%.

On to `COP(=S)(OC)Oc1cc(Cl)c(Cl)cc1Cl` [Ronnel], for which, in the assay on brain PMPMEase, the “Brain Mean (mean percent inhibition relative to the controls)” value is given as 45%. Besides, in the assay with liver PMPMEase, the “Liver Mean (mean percent inhibition relative to the controls)” value is reported as 93%.

For the molecule `CCOP(=O)(NC(C)C)Oc1ccc(SC)c(C)c1` (centres unmarked) [Phenamiphos], in the assay with liver PMPMEase, the “Liver Mean (mean percent inhibition relative to the controls)” value is listed as 92%.

Regarding `COP(=S)(OC)SCn1nnc2ccccc2c1=O` [Azinphos-M], the “Brain Mean (mean percent inhibition relative to the controls)” value with brain PMPMEase was 73%. The “Liver Mean (mean percent inhibition relative to the controls)” value in the assay with liver PMPMEase came out at 47%.

In the case of `CCOP(=S)(OCC)ON=C(C#N)c1ccccc1Cl` [Chlorphoxim], the “Brain Mean (mean percent inhibition relative to the controls)” value in the assay with brain PMPMEase amounted to 55%. In addition, the “Liver Mean (mean percent inhibition relative to the controls)” value in the assay on liver PMPMEase came out at 100%.

On to Acephate, for which the “Brain Mean (mean percent inhibition relative to the controls)” value in the assay on brain PMPMEase is 50%. In the assay with liver PMPMEase, the “Liver Mean (mean percent inhibition relative to the controls)” value is given as “NO INHIBITION”.

As to `CCOP(=S)(OCC)SCSC(C)(C)C` [Terbufos], the “Brain Mean (mean percent inhibition relative to the controls)” value in the assay on brain PMPMEase came out at 100%. For the same molecule, the “Liver Mean (mean percent inhibition relative to the controls)” value in the assay on liver PMPMEase is 72%.

Take `CCCSP(=O)(OCC)Oc1cnn(-c2ccc(Cl)cc2)c1` (centres unmarked) [Pyraclofos]: in the assay with brain PMPMEase, the “Brain Mean (mean percent inhibition relative to the controls)” value was found to be 82%. Besides, the “Liver Mean (mean percent inhibition relative to the controls)” value in the assay on liver PMPMEase amounted to 95%.

Consider `CCOP(=O)(OCC)SCCSCC` [Demeton-S], for which, in the assay with brain PMPMEase, the “Brain Mean (mean percent inhibition relative to the controls)” value worked out at 62%. Moreover, the “Liver Mean (mean percent inhibition relative to the controls)” value in the assay with liver PMPMEase worked out at 96%.

Trichlorfon: the “Brain Mean (mean percent inhibition relative to the controls)” value in the assay with brain PMPMEase is recorded as 100%. Moreover, the “Liver Mean (mean percent inhibition relative to the controls)” value in the assay on liver PMPMEase came to 91%.

Consider `CCOP(=S)(OCC)Oc1ccc([S+](C)[O-])cc1` (centres unmarked) [Fensulfothion], for which the “Brain Mean (mean percent inhibition relative to the controls)” value with brain PMPMEase stood at 100%. Moreover, the “Liver Mean (mean percent inhibition relative to the controls)” value with liver PMPMEase is listed as 100%.

Consider `CCOc1cc(OP(=S)(OC)OC)nc(CC)n1` [Etrimfos], for which the “Brain Mean (mean percent inhibition relative to the controls)” value in the assay with brain PMPMEase was found to be 78%. Also, the “Liver Mean (mean percent inhibition relative to the controls)” value in the assay with liver PMPMEase is on record as 100%.

For the molecule Prothiofos, the “Brain Mean (mean percent inhibition relative to the controls)” value in the assay on brain PMPMEase was 6%. Also, in the assay on liver PMPMEase, the “Liver Mean (mean percent inhibition relative to the controls)” value came to 52%.

`CCOP(=S)(OCC)Oc1ccc(Cl)cc1Cl` [Dichlofenthion]: in the assay on brain PMPMEase, the “Brain Mean (mean percent inhibition relative to the controls)” value is given as “NO INHIBITION”. Besides, the “Liver Mean (mean percent inhibition relative to the controls)” value in the assay on liver PMPMEase turned out to be 56%.

For the molecule `CCOP(=S)(OCC)SC(CCl)N1C(=O)c2ccccc2C1=O` (centres unmarked) [Dialifos], the “Brain Mean (mean percent inhibition relative to the controls)” value with brain PMPMEase was determined as 52%. Moreover, the “Liver Mean (mean percent inhibition relative to the controls)” value in the assay with liver PMPMEase came to 96%.

Consider Heptenophos, for which, in the assay on brain PMPMEase, the “Brain Mean (mean percent inhibition relative to the controls)” value amounted to 71%. Also, in the assay with liver PMPMEase, the “Liver Mean (mean percent inhibition relative to the controls)” value stood at 96%.

Take `COP(N)(=O)SC` (centres unmarked) [Methamidophos]: the “Brain Mean (mean percent inhibition relative to the controls)” value in the assay with brain PMPMEase stood at 24%. In the assay on liver PMPMEase, the “Liver Mean (mean percent inhibition relative to the controls)” value was found to be 45%.

For `CNC(=O)CSP(=S)(OC)OC` [Dimethoate], in the assay on liver PMPMEase, the “Liver Mean (mean percent inhibition relative to the controls)” value is 12%.

In the case of `CNC(=O)CSP(=O)(OC)OC` [Omethoate], the “Brain Mean (mean percent inhibition relative to the controls)” value in the assay with brain PMPMEase turned out to be 33%. Also, the “Liver Mean (mean percent inhibition relative to the controls)” value in the assay with liver PMPMEase came out at 12%.

`CCSCCSP(=O)(OC)OC` [Demeton-S-M]: the “Brain Mean (mean percent inhibition relative to the controls)” value in the assay on brain PMPMEase is 31%. The “Liver Mean (mean percent inhibition relative to the controls)” value in the assay with liver PMPMEase is given as 12%.

With `COc1nn(CSP(=S)(OC)OC)c(=O)s1` [Methidathion], in the assay with brain PMPMEase, the “Brain Mean (mean percent inhibition relative to the controls)” value is reported as 56%. In addition, the “Liver Mean (mean percent inhibition relative to the controls)” value in the assay with liver PMPMEase came to 78%.

Take `COP(=S)(Oc1cc(Cl)c(Br)cc1Cl)c1ccccc1` (centres unmarked) [Leptophos]: in the assay with brain PMPMEase, the “Brain Mean (mean percent inhibition relative to the controls)” value amounted to 29%. For the same molecule, the “Liver Mean (mean percent inhibition relative to the controls)” value in the assay with liver PMPMEase amounted to 60%.

As for Monocrotophos, the “Brain Mean (mean percent inhibition relative to the controls)” value in the assay with brain PMPMEase was determined as 30%. In addition, in the assay with liver PMPMEase, the “Liver Mean (mean percent inhibition relative to the controls)” value came out at 18%.

With `CNP(=S)(OC)O/C(C)=C/C(=O)OC(C)C` (centres unmarked) [Safrotin], the “Brain Mean (mean percent inhibition relative to the controls)” value in the assay on brain PMPMEase turned out to be 52%. Also, the “Liver Mean (mean percent inhibition relative to the controls)” value in the assay on liver PMPMEase was 54%.

`COP(=S)(OC)Oc1cc(Cl)c(I)cc1Cl` [Jodfenphos]: in the assay with brain PMPMEase, the “Brain Mean (mean percent inhibition relative to the controls)” value was 69%. Moreover, the “Liver Mean (mean percent inhibition relative to the controls)” value in the assay on liver PMPMEase is 96%.

Consider `CCN(CC)c1nc(C)cc(OP(=S)(OC)OC)n1` [Pirimiphos-M], for which the “Brain Mean (mean percent inhibition relative to the controls)” value with brain PMPMEase was 42%. Also, in the assay on liver PMPMEase, the “Liver Mean (mean percent inhibition relative to the controls)” value is given as 79%.

On to `COP(=S)(Oc1ccc(C#N)cc1)c1ccccc1` (centres unmarked) [Cyamophenphos], for which, in the assay on brain PMPMEase, the “Brain Mean (mean percent inhibition relative to the controls)” value amounted to 52%. Also, in the assay on liver PMPMEase, the “Liver Mean (mean percent inhibition relative to the controls)” value is given as 53%.

Turning to `CCOP(=S)(OCC)SCn1c(=O)oc2cc(Cl)ccc21` [Phosalone], the “Brain Mean (mean percent inhibition relative to the controls)” value in the assay with brain PMPMEase is on record as 62%. Besides, the “Liver Mean (mean percent inhibition relative to the controls)” value in the assay on liver PMPMEase stood at 79%.

`CNC(=O)C(C)SCCSP(=O)(OC)OC` (centres unmarked) [Vamidothion]: the “Liver Mean (mean percent inhibition relative to the controls)” value in the assay on liver PMPMEase turned out to be 55%.
